{"source": "patent EP0199190A2", "about": "“Separating element for separating solid particles, suspended in a gaseous current, by centrifugal force in a cylindrical whirl chamber” (Anton Piller GmbH & Co. KG, priority 1985, dated 1986)", "key": {"[1]": {"assay": "acute toxicity in the mouse, orally and intravenously", "conditions": "in vivo", "protocol": "(§1) As already stated, the compounds according to the invention show a marked antiplatelet aggregation activity. Moreover, their toxicity is very low. For example, the acute toxicity of the salt above referred by LM-PT bisulfate, was evaluated in the mouse orally and intravenously. The LD50 were about 400 mg/kg and about 100 mg/kg, respectively. The DPPV (disaggregating power percentage value) was evaluated for LM-PT bisulfate, by the ADP induced aggregation test ex vivo in the rat, orally. For a single dose of 100 mg/kg, the DPPV was 92-96%."}, "[2]": {"tested_on": "ADP induced aggregation", "assay": "ADP induced aggregation test ex vivo in the rat, orally", "conditions": "single dose of 100 mg/kg", "protocol": "as §1"}}}
{"smiles": "Cn1cnc2c1c(=O)n(CCCCC(=O)CN1CCc3sccc3C1)c(=O)n2C", "note": "[LM-PT bisulfate, N-[2-Reto-6-(3,7-dimethylxanthine-1-yl)hexyl]-4,5,6,7-tetrahydro-thieno[3,2-c]pyridine]", "values": [{"measurement": "LD50", "setting": "[1]; iv, intravenously", "result": "~100", "unit": "mg/kg"}, {"measurement": "LD50", "setting": "[1]; po, orally", "result": "~400", "unit": "mg/kg"}, {"measurement": "DPPV (disaggregating power percentage value)", "setting": "[2]", "result": "92-96%"}]}
